Patent US20250287947A1, “BIOCIDES AND ADHESIVE BINDING THEREOF” (EBERHARD KARLS UNIVERSITÄT TÜBINGEN MEDIZINISCHE FAKULTÄT, priority 2022, published 2025)
Converted amounts (≈) assume the structure as drawn. Where two headings read alike, the source gives them in different places.

Legend:
[1] = Influence of temperature on the state of matter of Py-C12 at pH 7.0 and pH 9.0 (Example 2); type: physicochemical; parameters: key to state of matter: X: liquid; o: solid; conditions: for solubility in water / state of matter: 1% (w/v); for state of matter: 1% w/v
Experimental: 1% (w/v) 5-N-carboxamido-2-pyrrolidone-N-n-dodecyl propane-1,3-diamine (Py-C12) free base was adjusted with HCl or NaOH to pH values 7.0 and 9.0 and subsequently incubated at temperatures between 2° C. and 60° C. […] (see table 2).

Aspergillus brasiliensis = test: Quantitative Suspension Test, modified DIN EN ISO 11930:2019 with organic load; type: cell-based; conditions: 0.5% (w/v) Py-C12, pH 7.0, organic load, incubation 3 days
Experimental: (§1) In order to evaluate the bactericidal and fungicidal efficacy of Py-C12, Quantitative Suspension Tests were carried out under dirty conditions according to modified DIN EN ISO 11930:2019 with organic load using incubation periods of one and three days, respectively. For this purpose, 5-N-carboxamido-2-pyrrolidone-N-n-dodecyl propane-1,3-diamine (Py-C12) solutions were adjusted to pH 7.0 with HCl and subsequently diluted to corresponding test concentrations.

Candida albicans = test: as above; type: cell-based; conditions: 0.025% (w/v) Py-C12, pH 7.0, organic load, incubation 1 day
Experimental: as §1

Escherichia coli = test: as above; type: cell-based; conditions: 0.025% (w/v) Py-C12, pH 7.0, organic load, incubation 1 day
Experimental: as §1

Pseudomonas aeruginosa = test: as above; type: cell-based; conditions: 0.025% (w/v) Py-C12, pH 7.0, organic load, incubation 1 day
Experimental: as §1

Staphylococcus aureus = test: as above; type: cell-based; conditions: 0.01% (w/v) Py-C12, pH 7.0, organic load, incubation 1 day
Experimental: as §1

[2] = test system: β-galactosidase-expressing E. coli strain; test: Wash resistance and biocidal activity of Py-C12 treated cotton textile (Example 6); type: cell-based; conditions: treated with 1% (w/v) pH 7.0, E. coli 3 days at 37° C.
Experimental: Round sterile cotton textile samples were treated with a liquid Py-C12 solution (1% (w/v) in water; pH 7.0) followed by intensive washing steps. For controls, samples were treated with water instead of Py-C12.
For testing wash resistance in an aqueous system samples were incubated in water for 20 h at 50° C. and then washed 16 times with water at 37° C. for 5 to 10 minutes each time.
For testing wash resistance in an alcoholic/acidic system, samples were washed 8 times with 2-propanol/1 mN HCl solution and 8 times with water in total.
After all washing steps, all samples were inoculated with a β-galactosidase-expressing E. coli strain and then incubated for 3 days at 37° C.

[3] = Modulation of the state of matter by salt concentration (Example 9); type: physicochemical; conditions: 2% (w/v), pH 7 (HCl), NaCl 0.5 M to 3 M in water, room temperature
From the text: 2% (w/v) 5-N-carboxamido-2-pyrrolidone-N′-n-dodecyl propane-1,3-diamine (Py-C12) was adjusted with HCl to pH 7 and combined with different concentrations of NaCl ranging from 0.5 M to 3 M in water at room temperature. A clearly visible precipitate (white color) is observed at concentrations of 1.5 M or more (see FIG. 4).

[4] = Modulation of the state of matter by temperature shift (Example 10); type: physicochemical; conditions: 1% and 5% (w/v) free base in water
[5] = test system: β-galactosidase-expressing E. coli strain; test: Wash resistance and biocidal activity of Py-C12 treated silk fabric (Example 17); type: cell-based; conditions: treated with 1% (w/v) free base; washed 10, 20 and 30 times with water 15 min; E. coli 3 days at 37° C.
Experimental: (§2) In a first step, 1% (w/v) Py-C12 free base in water was warmed to 50° C. to obtain a liquid solution. After incubation with the Py-C12 solution, the samples were cooled to room temperature upon which the liquid Py-C12 was converted into a solid phase and thus immobilized to the material. After drying, samples were washed with water at room temperature 10, 20, and 30 times for 15 minutes each time. Thereafter, all samples were inoculated with a β-galactosidase-expressing E. coli strain and then incubated for 3 days at 37° C.

[6] = test system: β-galactosidase-expressing E. coli strain; test: Wash resistance and biocidal activity of Py-C12 treated cotton fabric (Example 18); type: cell-based; conditions: treated with 1% (w/v) free base, E. coli 3 days at 37° C.
Experimental: as §2, with “10” for “10, 20,”

[7] = free base; i.e. 0.0033% (w/v) at ph 9.5; cited from earlier work

Question: Which “solubility in water / state of matter” value ([1]; pH 7, temperatures between 2° C. and 60° C.) does the source give for `CCCCCCCCCCCCNCCCNC(=O)C1CCC(=O)N1` (stereo not drawn) [Py-C12, 5-N-carboxamido-2-pyrrolidone-N′-n-dodecyl propane-1,3-diamine] here?
Answer: Its value is “completely soluble”.

Question: What about the “solubility in water / state of matter” value ([1]; pH 9.0, temperatures between 2° C. and 60° C.) of the same compound?
Answer: The value was “only present in liquid state at the tested temperatures of 50 °C and 60 °C”.

Question: What about the state of matter ([1]; pH 7.0, 2° C.) of the same compound?
Answer: Its state of matter is “X”.

Question: And the state of matter ([1]; pH 7.0, 4° C.)?
Answer: The state of matter was “X”.

Question: And the state of matter ([1]; pH 7.0, 8° C.)?
Answer: The state of matter was “X”.

Question: And the state of matter ([1]; pH 7.0, 12° C.)?
Answer: The state of matter was “X”.

Question: And the state of matter ([1]; pH 7.0, 16° C.)?
Answer: The state of matter was “X”.

Question: What about the state of matter ([1]; pH 7.0, 20° C.) of the same compound?
Answer: The state of matter was “X”.

Question: What about the state of matter ([1]; pH 7.0, 30° C.) of the same compound?
Answer: Its state of matter is “X”.

Question: And the state of matter ([1]; pH 7.0, 38° C.)?
Answer: The state of matter was “X”.

Question: What about the state of matter ([1]; pH 7.0, 50° C.) of the same compound?
Answer: The state of matter was “X”.

Question: What about the state of matter ([1]; pH 7.0, 60° C.) of the same compound?
Answer: The state of matter was “X”.

Question: What about the state of matter ([1]; pH 9.0, 2° C.) of the same compound?
Answer: Its state of matter is “o”.

Question: And the state of matter ([1]; pH 9.0, 4° C.)?
Answer: The state of matter was “o”.

Question: And the state of matter ([1]; pH 9.0, 8° C.)?
Answer: Its state of matter is “o”.

Question: What about the state of matter ([1]; pH 9.0, 12° C.) of the same compound?
Answer: Its state of matter is “o”.

Question: What about the state of matter ([1]; pH 9.0, 16° C.) of the same compound?
Answer: The state of matter was “o”.

Question: What about the state of matter ([1]; pH 9.0, 20° C.) of the same compound?
Answer: The state of matter was “o”.

Question: What about the state of matter ([1]; pH 9.0, 30° C.) of the same compound?
Answer: Its state of matter is “o”.

Question: And the state of matter ([1]; pH 9.0, 38° C.)?
Answer: The state of matter was “o”.

Question: And the state of matter ([1]; pH 9.0, 50° C.)?
Answer: The state of matter was “X”.

Question: What about the state of matter ([1]; pH 9.0, 60° C.) of the same compound?
Answer: Its state of matter is “X”.

Question: And the “Germ reduction factor log10” value (Aspergillus brasiliensis)?
Answer: The value was 4.6 log10.

Question: What about the “Germ reduction factor log10” value (Candida albicans) of the same compound?
Answer: Its value is 4.2 log10.

Question: What about the “Germ reduction factor log10” value (Escherichia coli) of the same compound?
Answer: The value was at least 5.5 log10.

Question: And the “Germ reduction factor log10” value (Pseudomonas aeruginosa)?
Answer: The value was at least 5.6 log10.

Question: What about the “Germ reduction factor log10” value (Staphylococcus aureus) of the same compound?
Answer: Its value is at least 5.6 log10.

Question: And the “biocidal effect of treated cotton textile after washing” value ([2]; alcoholic/acidic system: 8 washes 2-propanol/1 mN HCl and 8 with water)?
Answer: Its value is “completely colonized”.

Question: What about the “biocidal effect of treated cotton textile after washing” value ([2]; aqueous system: water 20 h at 50° C., then 16 water washes at 37° C.) of the same compound?
Answer: Its value is “maintained its biocidal effect”.

Question: And the “NaCl concentration at which a clearly visible precipitate is observed” value [3]?
Answer: Its value is at least 1.5 M.

Question: And the solubility in water ([4]; 50° C.)?
Answer: The solubility in water was “completely soluble”.

Question: And the state of matter ([4]; room temperature)?
Answer: The state of matter was “readily precipitated”.

Question: And the “bacterial growth on treated silk fabric after washing” value [5]?
Answer: The value was “Blue coloured bacteria only appear in control sample”.

Question: And the “bacterial growth on treated cotton fabric after washing” value ([6]; washed 10 times with water 15 min)?
Answer: The value was “doesn't show any bacterial growth”.

Question: And the “bacterial growth on treated cotton fabric after washing” value ([6]; washed 30 times with water 15 min)?
Answer: The value was “few spots”.

Question: What about the solubility in water [7] of the same compound?
Answer: The solubility in water was 33 µg/mL (≈ 93.3 µM).
